Assay results from US20230122344A1, “ANTAGONISTS OF THE MUSCARINIC ACETYLCHOLINE RECEPTOR M4” (Vanderbilt University, priority 2019, published 2023).

Target: T1, Human M4 (Homo sapiens, UniProt P08173)
T1 construct: expressed in transfected cells; host or cells: CHO-K1 (ATCC), co-transfected with chimeric G protein Gqi5
T1 sequence (P08173 1-479): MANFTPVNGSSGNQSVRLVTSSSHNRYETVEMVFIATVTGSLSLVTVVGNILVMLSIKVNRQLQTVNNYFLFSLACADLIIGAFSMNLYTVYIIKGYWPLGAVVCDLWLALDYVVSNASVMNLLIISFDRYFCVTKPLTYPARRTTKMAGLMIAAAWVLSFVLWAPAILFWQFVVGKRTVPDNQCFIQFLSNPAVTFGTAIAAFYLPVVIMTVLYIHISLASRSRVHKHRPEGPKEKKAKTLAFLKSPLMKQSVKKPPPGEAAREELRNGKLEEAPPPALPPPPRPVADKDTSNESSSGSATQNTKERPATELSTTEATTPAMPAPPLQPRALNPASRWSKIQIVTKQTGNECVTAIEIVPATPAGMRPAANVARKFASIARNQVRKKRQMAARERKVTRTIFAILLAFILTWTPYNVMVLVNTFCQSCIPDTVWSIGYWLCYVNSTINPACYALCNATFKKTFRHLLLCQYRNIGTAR
Test: mAChR M4 cell-based functional assay (calcium flux, antagonism of EC80 acetylcholine response)
Conditions: M4/Gqi5/CHO-K1 cells; for remaining activity at 30 µM: CHO-K1, % ACh maximum at 30 μM, read-out: Human M4 Emin; for IC50: decrease of response elicited by EC80 acetylcholine
Outline: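 CHO-K1 cells stably expressing human or rat M4 with Gqi5, Fluo-4 loaded; calcium measured by fluorescence ratio on FDSS. Compound added, then EC20 acetylcholine at 143 s and EC80 at 268 s; IC50 from decrease of EC80 response, four-parameter logistic fit.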

| Structure (SMILES) | remaining activity at 30 µM [%] | IC50 [nM] |
| --- | --- | --- |
| Cc1c(-c2cc(F)ccc2F)nnc(N[C@H]2C[C@@H]3CN(CC4CCOCC4)C[C@@H]3C2)c1C#N [compound 64, 6-(2,5-difluorophenyl)-5-methyl-3-(((3aR,5s,6aS)-2-((tetrahydro-2H-pyran-4-yl)methyl)octahydrocyclopenta[c]pyrrol-5-yl)amino)pyridazine-4-carbonitrile] | 3 | 7.69 |
| Cc1c(-c2cc(F)ccc2Cl)nnc(N[C@H]2C[C@@H]3CN(CC4CCOCC4)C[C@@H]3C2)c1C#N [compound 67, 6-(2-chloro-5-fluorophenyl)-5-methyl-3-(((3aR,5s,6aS)-2-((tetrahydro-2H-pyran-4-yl)methyl)octahydrocyclopenta[c]pyrrol-5-yl)amino)pyridazine-4-carbonitrile] | 2 | 0.83 |
| [2H]C([2H])(C1CCOCC1)N1C[C@H]2C[C@H](Nc3nnc(-c4ccc5ccccc5c4)c(C)c3C)C[C@H]2C1 [compound 71, (3aR,5s,6aS)-N-(4,5-dimethyl-6-(naphthalen-2-yl)pyridazin-3-yl)-2-((tetrahydro-2H-pyran-4-yl)methyl-d2)octahydrocyclopenta[c]pyrrol-5-amine] | 2 | 12.7 |
| Cc1c(-c2ccc3nn(C)cc3c2)nnc(N[C@H]2C[C@@H]3CN(CC4CCOCC4)C[C@@H]3C2)c1C#N [compound 72, 5-methyl-6-(2-methyl-2H-indazol-5-yl)-3-(((3aR,5s,6aS)-2-((tetrahydro-2H-pyran-4-yl)methyl)octahydrocyclopenta[c]pyrrol-5-yl)amino)pyridazine-4-carbonitrile] | 4 | 0.91 |
| [2H]C([2H])(C1CCOCC1)N1C[C@H]2C[C@H](Nc3nnc(-c4cc(F)ccc4F)c(C)c3C(F)(F)F)C[C@H]2C1 [compound 75, (3aR,5s,6aS)-N-(6-(2,5-difluorophenyl)-5-methyl-4-(trifluoromethyl)pyridazin-3-yl)-2-((tetrahydro-2H-pyran-4-yl)methyl-d2)octahydrocyclopenta[c]pyrrol-5-amine] | 3 | 20.9 |
| [2H]C([2H])(C1CCOCC1)N1C[C@H]2C[C@H](Nc3nnc(-c4ccccc4)c(C)c3C(F)(F)F)C[C@H]2C1 [compound 76, (3aR,5s,6aS)-N-(5-methyl-6-phenyl-4-(trifluoromethyl)pyridazin-3-yl)-2-((tetrahydro-2H-pyran-4-yl)methyl-d2)octahydrocyclopenta[c]pyrrol-5-amine] | 3 | 12.1 |
| [2H]C([2H])(C1CCOCC1)N1C[C@H]2C[C@H](Nc3nnc(-c4cc(F)cc(F)c4F)c(C4CC4)c3C(F)(F)F)C[C@H]2C1 [compound 77, (3aR,5s,6aS)-N-(5-cyclopropyl-4-(trifluoromethyl)-6-(2,3,5-trifluorophenyl)pyridazin-3-yl)-2-((tetrahydro-2H-pyran-4-yl)methyl-d2)octahydrocyclopenta[c]pyrrol-5-amine] | 2 | 83.5 |
| Fc1ccc(F)c(-c2cc(C(F)F)c(N[C@H]3C[C@@H]4CN(C[C@@H]5COCCO5)C[C@@H]4C3)nn2)c1 [compound 80, (3aR,5S,6aS)-2-(((R)-1,4-dioxan-2-yl)methyl)-N-(4-(difluoromethyl)-6-(2,5-difluorophenyl)pyridazin-3-yl)octahydrocyclopenta[c]pyrrol-5-amine] | 4 | 5 |
| Fc1ccc(F)c(-c2cc(C(F)F)c(N[C@H]3C[C@@H]4CN(C[C@H]5COCCO5)C[C@@H]4C3)nn2)c1 [compound 81, (3aR,5R,6aS)-2-(((S)-1,4-dioxan-2-yl)methyl)-N-(4-(difluoromethyl)-6-(2,5-difluorophenyl)pyridazin-3-yl)octahydrocyclopenta[c]pyrrol-5-amine] | 4 | 180 |

The remaining molecules from weak to strong by IC50, led by results:

| remaining activity at 30 µM [%] | IC50 [nM] | Structure (SMILES) |
| --- | --- | --- |
| 8 | 2930 | Cc1c(Cl)nnc(N[C@H]2C[C@@H]3CN(CC4CCOCC4)C[C@@H]3C2)c1C#N [compound 65, 6-chloro-5-methyl-3-(((3aR,5s,6aS)-2-((tetrahydro-2H-pyran-4-yl)methyl)octahydrocyclopenta[c]pyrrol-5-yl)amino)pyridazine-4-carbonitrile] |
| 4 | 230 | OC1(CN2C[C@H]3C[C@H](Nc4nnc(-c5cc(F)ccc5F)cc4C(F)F)C[C@H]3C2)CCOCC1 [compound 78, 4-(((3aR,5s,6aS)-5-((4-(difluoromethyl)-6-(2,5-difluorophenyl)pyridazin-3-yl)amino)hexahydrocyclopenta[c]pyrrol-2(1H)-yl)methyl)tetrahydro-2H-pyran-4-ol] |
| 2 | 159 | [2H]C([2H])(C1CCOCC1)N1C[C@H]2C[C@H](Nc3nnc(-c4cc(F)ccc4C)c(C)c3C(F)(F)F)C[C@H]2C1 [compound 74, (3aR,5s,6aS)-N-(6-(5-fluoro-2-methylphenyl)-5-methyl-4-(trifluoromethyl)pyridazin-3-yl)-2-((tetrahydro-2H-pyran-4-yl)methyl-d2)octahydrocyclopenta[c]pyrrol-5-amine] |
| 4 | 110 | CC1(CN2C[C@H]3C[C@H](Nc4nnc(-c5cc(F)ccc5F)cc4C(F)F)C[C@H]3C2)CCOCC1 [compound 79, (3aR,5s,6aS)-N-(4-(difluoromethyl)-6-(2,5-difluorophenyl)pyridazin-3-yl)-2-((4-methyltetrahydro-2H-pyran-4-yl)methyl)octahydrocyclopenta[c]pyrrol-5-amine] |
| 11 | 24.1 | [2H]C([2H])(C1CCOCC1)N1C[C@H]2C[C@H](Nc3nnc(-c4ccc(F)cc4)c(C)c3C)C[C@H]2C1 [compound 70, (3aR,5s,6aS)-N-(6-(4-fluorophenyl)-4,5-dimethylpyridazin-3-yl)-2-((tetrahydro-2H-pyran-4-yl)methyl-d2)octahydrocyclopenta[c]pyrrol-5-amine] |
| 3 | 17.9 | Cc1c(-c2cc(F)ccc2F)nnc(N[C@H]2C[C@@H]3CN(C[C@H]4CC5CCC4O5)C[C@@H]3C2)c1C#N (stereo partly drawn) [compound 66, 3-(((3aR,5s,6aS)-2-(((2R)-7-oxabicyclo[2.2.1]heptan-2-yl)methyl)octahydrocyclopenta[c]pyrrol-5-yl)amino)-6-(2,5-difluorophenyl)-5-methylpyridazine-4-carbonitrile] |
| 3 | 8.42 | Cc1c(-c2cccc(F)c2)nnc(N[C@H]2C[C@@H]3CN(CC4CCOCC4)C[C@@H]3C2)c1C#N [compound 69, 6-(3-fluorophenyl)-5-methyl-3-(((3aR,5s,6aS)-2-((tetrahydro-2H-pyran-4-yl)methyl)octahydrocyclopenta[c]pyrrol-5-yl)amino)pyridazine-4-carbonitrile] |
| 4 | 3.43 | Cc1c(-c2ccc(F)cc2)nnc(N[C@H]2C[C@@H]3CN(CC4CCOCC4)C[C@@H]3C2)c1C#N [compound 73, 6-(4-fluorophenyl)-5-methyl-3-(((3aR,5s,6aS)-2-((tetrahydro-2H-pyran-4-yl)methyl)octahydrocyclopenta[c]pyrrol-5-yl)amino)pyridazine-4-carbonitrile] |
| 3 | 0.97 | Cc1c(-c2ccccc2F)nnc(N[C@H]2C[C@@H]3CN(CC4CCOCC4)C[C@@H]3C2)c1C#N [compound 68, 6-(2-fluorophenyl)-5-methyl-3-(((3aR,5s,6aS)-2-((tetrahydro-2H-pyran-4-yl)methyl)octahydrocyclopenta[c]pyrrol-5-yl)amino)pyridazine-4-carbonitrile] |
| 2 | 0.92 | [2H]C([2H])(C1CCOCC1)N1C[C@H]2C[C@H](Nc3nnc(-c4cc(F)ccc4C)c(C)c3C)C[C@H]2C1 [compound 63, (3aR,5s,6aS)-N-(6-(5-fluoro-2-methylphenyl)-4,5-dimethylpyridazin-3-yl)-2-((tetrahydro-2H-pyran-4-yl)methyl-d2)octahydrocyclopenta[c]pyrrol-5-amine] |
| 2 | 0.71 | [2H]C([2H])(C1CCOCC1)N1C[C@H]2C[C@H](Nc3nnc(-c4cccc(F)c4)c(C)c3C)C[C@H]2C1 [compound 62, (3aR,5s,6aS)-N-(6-(3-fluorophenyl)-4,5-dimethylpyridazin-3-yl)-2-((tetrahydro-2H-pyran-4-yl)methyl-d2)octahydrocyclopenta[c]pyrrol-5-amine] |
| 2 | 0.52 | [2H]C([2H])(C1CCOCC1)N1C[C@H]2C[C@H](Nc3nnc(-c4ccccc4F)c(C)c3C)C[C@H]2C1 [compound 61, (3aR,5s,6aS)-N-(6-(2-fluorophenyl)-4,5-dimethylpyridazin-3-yl)-2-((tetrahydro-2H-pyran-4-yl)methyl-d2)octahydrocyclopenta[c]pyrrol-5-amine] |
